According to PubChem BioAssay (NCI):
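Interpolation was linear, between the two tested concentrations surrounding the appropriate level; five concentrations were tested over 48 hours in 96-well plates. Abbreviation: GI50, concentration required for 50% inhibition of growth. TGI denotes the concentration required for complete inhibition of growth.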

Columns and labels:
Assay in all cases: DTP human tumour cell line panel, 48 h
MCF7 breast = tested on: MCF7 breast
UACC-62 melanoma = tested on: UACC-62 melanoma
SK-MEL-28 melanoma = tested on: SK-MEL-28 melanoma
OVCAR-5 ovarian = tested on: OVCAR-5 ovarian
HOP-92 NSCLC = tested on: HOP-92 NSCLC
MDA-MB-231 breast = tested on: MDA-MB-231 breast
NCI/ADR-RES ovarian = tested on: NCI/ADR-RES ovarian
SF-539 CNS = tested on: SF-539 CNS
786-0 renal = tested on: 786-0 renal
SN12C renal = tested on: SN12C renal
COLO 205 colon = tested on: COLO 205 colon
KM12 colon = tested on: KM12 colon
EKVX NSCLC = tested on: EKVX NSCLC
K-562 leukemia = tested on: K-562 leukemia
T-47D breast = tested on: T-47D breast
DU-145 prostate = tested on: DU-145 prostate
MOLT-4 leukemia = tested on: MOLT-4 leukemia
HOP-62 NSCLC = tested on: HOP-62 NSCLC
HS 578T breast = tested on: HS 578T breast
SNB-19 CNS = tested on: SNB-19 CNS
SNB-75 CNS = tested on: SNB-75 CNS
SW-620 colon = tested on: SW-620 colon
OVCAR-4 ovarian = tested on: OVCAR-4 ovarian
BT-549 breast = tested on: BT-549 breast
A498 renal = tested on: A498 renal
SK-MEL-2 melanoma = tested on: SK-MEL-2 melanoma
NCI-H226 lung = tested on: NCI-H226 lung
IGROV1 ovarian = tested on: IGROV1 ovarian
SF-268 CNS = tested on: SF-268 CNS
HL-60(TB) leukemia = tested on: HL-60(TB) leukemia
M14 melanoma = tested on: M14 melanoma
OVCAR-8 ovarian = tested on: OVCAR-8 ovarian
A549 NSCLC = tested on: A549 NSCLC
NCI-H460 lung = tested on: NCI-H460 lung
HCT-116 colon = tested on: HCT-116 colon
NCI-H522 lung = tested on: NCI-H522 lung
CCRF-CEM leukemia = tested on: CCRF-CEM leukemia
HCT-15 colon = tested on: HCT-15 colon
SK-OV-3 ovarian = tested on: SK-OV-3 ovarian
TK-10 renal = tested on: TK-10 renal
LOX IMVI melanoma = tested on: LOX IMVI melanoma
RXF 393 renal = tested on: RXF 393 renal
U251 CNS = tested on: U251 CNS
SF-295 CNS = tested on: SF-295 CNS
UACC-257 melanoma = tested on: UACC-257 melanoma
CAKI-1 renal = tested on: CAKI-1 renal
SK-MEL-5 melanoma = tested on: SK-MEL-5 melanoma
NCI-H23 lung = tested on: NCI-H23 lung
MDA-MB-435 = tested on: MDA-MB-435
HT29 colon = tested on: HT29 colon
PC-3 prostate = tested on: PC-3 prostate
ACHN renal = tested on: ACHN renal
MALME-3M melanoma = tested on: MALME-3M melanoma
UO-31 renal = tested on: UO-31 renal
HCC-2998 colon = tested on: HCC-2998 colon
OVCAR-3 ovarian = tested on: OVCAR-3 ovarian
SR leukemia = tested on: SR leukemia

O=C(Nc1ccc(Cl)cc1)Nc1nc2ccc([N+](=O)[O-])cc2s1
GI50 (MCF7 breast): 460 nM | TGI (MCF7 breast): 1910 nM | GI50 (UACC-62 melanoma): 485 nM | TGI (UACC-62 melanoma): 2140 nM | GI50 (SK-MEL-28 melanoma): 663 nM | TGI (SK-MEL-28 melanoma): 2020 nM | GI50 (OVCAR-5 ovarian): 1850 nM | TGI (OVCAR-5 ovarian): 4.45 µM | GI50 (HOP-92 NSCLC): 187 nM | TGI (HOP-92 NSCLC): 628 nM | GI50 (MDA-MB-231 breast): 1120 nM | TGI (MDA-MB-231 breast): 2920 nM | GI50 (NCI/ADR-RES ovarian): 880 nM | TGI (NCI/ADR-RES ovarian): 2280 nM | GI50 (SF-539 CNS): 915 nM | TGI (SF-539 CNS): 2350 nM | GI50 (786-0 renal): 776 nM | TGI (786-0 renal): 2390 nM | GI50 (SN12C renal): 647 nM | TGI (SN12C renal): 2590 nM | GI50 (COLO 205 colon): 1700 nM | TGI (COLO 205 colon): 3.29 µM | GI50 (KM12 colon): 642 nM | TGI (KM12 colon): 2310 nM | GI50 (EKVX NSCLC): 886 nM | TGI (EKVX NSCLC): 2660 nM | GI50 (K-562 leukemia): 375 nM | TGI (K-562 leukemia): 1550 nM | GI50 (T-47D breast): 308 nM | TGI (T-47D breast): 1280 nM | GI50 (DU-145 prostate): 1110 nM | TGI (DU-145 prostate): 5.15 µM | GI50 (MOLT-4 leukemia): 438 nM | TGI (MOLT-4 leukemia): 1980 nM | GI50 (HOP-62 NSCLC): 1190 nM | TGI (HOP-62 NSCLC): 3.13 µM | GI50 (HS 578T breast): 1170 nM | TGI (HS 578T breast): 3.87 µM | GI50 (SNB-19 CNS): 735 nM | TGI (SNB-19 CNS): 2750 nM | GI50 (SNB-75 CNS): 952 nM | TGI (SNB-75 CNS): 3.51 µM | GI50 (SW-620 colon): 840 nM | TGI (SW-620 colon): 2340 nM | GI50 (OVCAR-4 ovarian): 573 nM | TGI (OVCAR-4 ovarian): 3.13 µM | GI50 (BT-549 breast): 593 nM | TGI (BT-549 breast): 1760 nM | GI50 (A498 renal): 275 nM | TGI (A498 renal): 996 nM | GI50 (SK-MEL-2 melanoma): 554 nM | TGI (SK-MEL-2 melanoma): 2320 nM | GI50 (NCI-H226 lung): 777 nM | TGI (NCI-H226 lung): 2460 nM | GI50 (IGROV1 ovarian): 1080 nM | TGI (IGROV1 ovarian): 2680 nM | GI50 (SF-268 CNS): 1090 nM | TGI (SF-268 CNS): 3.46 µM | GI50 (HL-60(TB) leukemia): 604 nM | TGI (HL-60(TB) leukemia): 2020 nM | GI50 (M14 melanoma): 815 nM | TGI (M14 melanoma): 2240 nM | GI50 (OVCAR-8 ovarian): 1270 nM | TGI (OVCAR-8 ovarian): 4.7 µM | GI50 (A549 NSCLC): 837 nM | TGI (A549 NSCLC): 3.43 µM | GI50 (NCI-H460 lung): 468 nM | TGI (NCI-H460 lung): 1700 nM | GI50 (HCT-116 colon): 346 nM | TGI (HCT-116 colon): 1270 nM | GI50 (NCI-H522 lung): 378 nM | TGI (NCI-H522 lung): 2890 nM | GI50 (CCRF-CEM leukemia): 393 nM | TGI (CCRF-CEM leukemia): 1850 nM | GI50 (HCT-15 colon): 675 nM | TGI (HCT-15 colon): 2110 nM | GI50 (SK-OV-3 ovarian): 843 nM | TGI (SK-OV-3 ovarian): 4.51 µM | GI50 (TK-10 renal): 889 nM | TGI (TK-10 renal): 4.32 µM | GI50 (LOX IMVI melanoma): 727 nM | TGI (LOX IMVI melanoma): 2060 nM | GI50 (RXF 393 renal): 587 nM | TGI (RXF 393 renal): 1940 nM | GI50 (U251 CNS): 606 nM | TGI (U251 CNS): 2570 nM | GI50 (SF-295 CNS): 728 nM | TGI (SF-295 CNS): 2120 nM | GI50 (UACC-257 melanoma): 639 nM | TGI (UACC-257 melanoma): 2790 nM | GI50 (CAKI-1 renal): 653 nM | TGI (CAKI-1 renal): 2510 nM | GI50 (SK-MEL-5 melanoma): 365 nM | TGI (SK-MEL-5 melanoma): 1330 nM | GI50 (NCI-H23 lung): 332 nM | TGI (NCI-H23 lung): 1260 nM | GI50 (MDA-MB-435): 729 nM | TGI (MDA-MB-435): 2200 nM | GI50 (HT29 colon): 2570 nM | TGI (HT29 colon): 7.14 µM | GI50 (PC-3 prostate): 380 nM | TGI (PC-3 prostate): 1630 nM | GI50 (ACHN renal): 751 nM | TGI (ACHN renal): 2290 nM | GI50 (MALME-3M melanoma): 467 nM | TGI (MALME-3M melanoma): 1870 nM | GI50 (UO-31 renal): 545 nM | TGI (UO-31 renal): 2450 nM | GI50 (HCC-2998 colon): 590 nM | TGI (HCC-2998 colon): 2080 nM | GI50 (OVCAR-3 ovarian): 435 nM | TGI (OVCAR-3 ovarian): 1590 nM | GI50 (SR leukemia): 566 nM | TGI (SR leukemia): 2280 nM
